The text below walks through data of patent US8367707B2, “Pest control agents” (Meiji Seika Pharma Co., Ltd., priority 2005, dated 2013).

The subject of one assay is Helicoverpa armigera. Nature of the assay: Test Example 4: pesticidal effect against Helicoverpa armigera, cabbage leaf disk. It is filed as in vivo. The settings on record: 100 ppm; third instar larva on cabbage leaf disk; three days after treatment, 25° C. The source says: A cabbage leaf disk having a diameter of 2.8 cm was placed is in a plastic cup. Test compounds, which had been diluted to a predetermined concentration by the addition of a 50% aqueous acetone solution (Tween 20, 0.05% added), were spreaded over the cabbage leaf disk by means of a spray gun, and the cabbage leaf disk was then air dried. A larva at the third instar of Helicoverpa armigera was released in the cup. The cup was then lidded, and the larva was reared in the temperature-controlled room (25° C.). […] The test was repeated 5 times. Further, the death rate of the larvae were calculated in the same manner as in Test Example 1.

In assay [1] the test system is Plutella xylostella L larvae. The settings on record: WO 2004/060065; cited from earlier work.
The subject of the next assay is Tenebrio molitor L. The settings on record: WO 2004/060065; cited from earlier work.
Assay [2] relates to larvae of Helicoverpa zea. The following applies: Applied and Environmental Microbiology (1995), 61(12), 4429-35; cited from earlier work.

Molecules are shown by their SMILES.

For `CC1(COC(=O)C2CCC2)C(OC(=O)C2CCC2)CCC2(C)C1CC(OC(=O)C1CCC1)C1(C)Oc3cc(-c4cccnc4)oc(=O)c3C(O)C21` (stereo not shown) [Compound 219], the “death rate of larvae” value in the assay with Helicoverpa armigera was “not less than 80%”.

Consider `CC(=O)OCC1(C)C(OC(C)=O)CCC2(C)C1CC(OC(C)=O)C1(C)Oc3cc(-c4cccnc4)oc(=O)c3C(O)C21` (stereo not shown) [pyripyropene A], for which the “insecticidal activity against Plutella xylostella L larvae” value in assay [1] was “insecticidal activity”. Further, the “insecticidal activity against Tenebrio molitor L” value in the assay with Tenebrio molitor L is given as “insecticidal activity”. For the same compound, the “insecticidal activity against larvae of Helicoverpa zea” value in assay [2] is listed as “insecticidal activity”.
